According to US20080004272A1, “Compositions and methods for modulating gated ion channels” (PainCeptor Pharma Corporation, priority 2006, published 2008):

System: carrageenan-induced thermal hyperalgesia
Test: Carrageenan model, thermal hyperalgesia (Hargreaves' assay)
Format: in vivo
Settings: rat, 10 mg/kg s.c. 30 min prior to carrageenan, tested 2, 3 and 4 h post
Procedure: Acute inflammatory hyperalgesia is induced in rats by unilateral injection of […] of a 3% solution of 1-carrageenan into the plantar surface of the left hind paw 2-4 h prior to testing. Thermal nociceptive thresholds are determined according to the method described elsewhere (Hargreaves et al., 1988). Briefly, through the glass surface, a radiant heat source (8 V, 50 W projector bulb) is focused onto the plantar surface of the hind paw. The rat's paw-withdrawal latency to this stimulus is recorded to the nearest 0.1 s. Each latency score is an average of three trials, which are separated by at least 5 min. In all rats, both the injured and uninjured hind paws are similarly tested, allowing direct comparisons between inflamed and non-inflamed paws.
FIG. 5 illustrates the effect of Compound 203 (10 mg/kg s.c.) on the thermal hyperalgesia (observed in the Hargreaves' assay) resulting from an acute paw inflammation caused by the intraplantar injection of 150 μl of a 3% solution of λ-carrageenan. Compound 203 was given 30 min prior to carrageenan injection and thermal hyperalgesia was tested 2, 3, and 4 h post carrageenan injection.

Compound: CN1CCc2c(-c3ccccc3)cc(C#N)c(N)c2C1 [Compound 203, 8-Amino-2-methyl-5-phenyl-1,2,3,4-tetrahydro-isoquinoline-7-carbonitrile]
- Effect on thermal hyperalgesia: reduced the thermal hyperalgesia to level not significant to the control paw
